# Reference: article PMC12133982, “Predominant T-cell epitopes of SARS-CoV-2 restricted by multiple prevalent HLA-B and HLA-C allotypes in Northeast Asia” (Frontiers in Immunology, 2025)
# Peptide text beside a SMILES is read from it.
# Key:
# HLA-C0102 = HLA-C0102 (Homo sapiens, UniProt P10321, A176E/A330V/A35S/A97T/C350S/D114A/D33F/L171W/L180R/L218V/M285V/M309V/M331V/P208H/Q277E/Q291P/R121W/R243W/R30K/S123C/S140Y/S297R/T329A/T363A/V272M/V319A); assay: Competitive peptide binding assay, CIR-C0102; details: HMy2.CIR-C0102 cells, reference Cy5-[…], class from inhibition at 5 and 15 μM, flow cytometry MFI; read-out: Binding affinity with HLA-C0102
# Procedure: (§1) Then, competitive peptide binding assays were performed.
# HLA-C0801 = HLA-C0801 (Homo sapiens, UniProt P10321, A176T/A330V/A97T/C350S/D114A/D138N/D33Y/E201K/E299G/L171W/L218V/M285V/M309V/M331V/P208H/Q277E/Q291P/R59Q/S123Y/S140F/S297R/S48A/T329A/T363A/V319A/V328M); assay: Competitive peptide binding assay, CIR-C0801; details: HMy2.CIR-C0801 cells, reference Cy5-[…], class from inhibition at 5 and 15 μM, flow cytometry MFI; read-out: Binding affinity with HLA-C0801
# Procedure: as §1
# HLA-C0304 = HLA-C0304 (Homo sapiens, UniProt P10321, A176E/A330V/A97T/C25G/C350S/D114A/D33Y/E197K/L119I/L127V/L171W/L218V/M285V/M309V/M331V/P208H/Q277E/Q291P/R243W/R45H/S123Y/S140Y/S297R/S48A/T118I/T187L/T329A/T363A/V319A); assay: Competitive peptide binding assay, CIR-C0304; details: HMy2.CIR-C0304 cells, reference Cy5-[…], class from inhibition at 5 and 15 μM, flow cytometry MFI; read-out: Binding affinity with HLA-C0304
# Procedure: as §1
# HLA-C0302 = HLA-C0302 (Homo sapiens, UniProt P10321, A176E/A330V/A97T/C25G/C350S/D114A/D33Y/E197K/L127V/L171W/L218V/M285V/M309V/M331V/P208H/Q277E/Q291P/R243W/R45H/S123Y/S297R/S48A/T118I/T187L/T329A/T363A/V319A); assay: Competitive peptide binding assay, CIR-C0302; details: HMy2.CIR-C0302 cells, reference Cy5-[…], class from inhibition at 5 and 15 μM, flow cytometry MFI; read-out: Binding affinity with HLA-C0302
# Procedure: as §1
# HLA-C0303 = HLA-C0303 (Homo sapiens, UniProt P10321, A176E/A330V/A97T/C25G/C350S/D114A/D33Y/E197K/G115R/L119I/L127V/L171W/L218V/M285V/M309V/M331V/P208H/Q277E/Q291P/R243W/R45H/S123Y/S140Y/S297R/S48A/T118I/T187L/T329A/T363A/V319A); assay: Competitive peptide binding assay, CIR-C0303; details: HMy2.CIR-C0303 cells, reference Cy5-[…], class from inhibition at 5 and 15 μM, flow cytometry MFI; read-out: Binding affinity with HLA-C0303
# Procedure: as §1
# HLA-C0701 = HLA-C0701 (Homo sapiens, UniProt P10321, K90N/S123Y); assay: Competitive peptide binding assay, CIR-C0701; details: HMy2.CIR-C0701 cells, reference Cy5-[…], class from inhibition at 5 and 15 μM, flow cytometry MFI; read-out: Binding affinity with HLA-C 0701
# Procedure: as §1
# HLA-C0602 = HLA-C0602 (Homo sapiens, UniProt P10321, A176E/A330V/C350S/L171W/L180W/L218V/M285V/M309V/M331V/N104K/P208H/Q277E/Q291P/R121W/S101N/S123Y/S297R/T329A/T363A/V319A/V328M); assay: Competitive peptide binding assay, CIR-C0602
# HLA-C0401 = HLA-C0401 (Homo sapiens, UniProt P10321, A176E/A330V/A35S/A73E/C25G/C350S/D138N/D33S/E299K/L171W/L180R/L218V/M285V/M309V/M331V/N104K/P208H/Q277E/Q291P/R243W/R38W/S101N/S123F/S140F/S297R/S48A/T329A/T363A/V319A/V327M); assay: Competitive peptide binding assay, CIR-C0401; details: HMy2.CIR-C0401 cells, reference Cy5-[…], class from inhibition at 5 and 15 μM, flow cytometry MFI; read-out: Binding affinity with HLA-C0401
# Procedure: as §1
# HLA-C0702 = HLA-C0702 (Homo sapiens, UniProt P10321); assay: Competitive peptide binding assay, CIR-C0702
# HLA-C1202 = HLA-C1202 (Homo sapiens, UniProt P10321, A176E/A330V/C350S/D114A/D33Y/L171W/L180W/L218V/M285V/M309V/M331V/P208H/Q277E/Q291P/S123Y/S297R/S48A/T329A/T363A/V319A/V328M); assay: Competitive peptide binding assay, CIR-C1202; details: HMy2.CIR-C1202 cells, reference Cy5-[…], class from inhibition at 5 and 15 μM, flow cytometry MFI; read-out: Binding affinity with HLA-C1202
# Procedure: as §1
# HLA-B4601 = HLA-B4601 (Homo sapiens, UniProt P01889, A329T/A93R/C349S/D201E/E100V/E187L/E204Q/E69M/E70A/I90K/K202T/N87E/R155S/R180W/S121R/S35A/S48A/V306I/V36M/Y140S); assay: Competitive peptide binding assay, CIR-B4601; details: HMy2.CIR-B4601 cells, reference Cy5-[…], class from inhibition at 5 and 15 μM, flow cytometry MFI; read-out: Binding affinity with HLA-B4601
# Procedure: as §1
# HLA-B5801 = HLA-B5801 (Homo sapiens, UniProt P01889, A329T/C349S/D201E/D98Y/E176V/E187L/E204Q/E69T/G107R/I218V/I90N/K202T/L105A/L119I/N104I/N87E/Q89R/Q94S/R106L/R155S/R180L/R86G/S101N/S121R/S35A/S48A/T118I/V127L/V306I/V36M/Y140S/Y91M); assay: Competitive peptide binding assay, CIR-B5801; details: HMy2.CIR-B5801 cells, reference Cy5-[…], class from inhibition at 5 and 15 μM, flow cytometry MFI; read-out: Binding affinity with HLA-B5801
# Procedure: as §1
# HLA-B1502 = HLA-B1502 (Homo sapiens, UniProt P01889, A329T/A93T/A95T/C349S/D201E/D98Y/E187L/E204Q/E69M/E70A/H137Y/K202T/L119I/Q94N/R155S/R180L/S121R/S35A/S48A/T118I/V306I/V36M/Y140S/Y91S); assay: Competitive peptide binding assay, CIR-B1502; details: HMy2.CIR-B1502 cells, reference Cy5-[…], class from inhibition at 5 and 15 μM, flow cytometry MFI; read-out: Binding affinity with HLA-B1502
# Procedure: as §1
# HLA-B5101 = HLA-B5101 (Homo sapiens, UniProt P01889, A329T/A93T/A95T/C349S/D138N/D201E/D98Y/E187L/E204Q/E69T/G107R/I218V/K202T/L105A/L119W/N104I/Q94N/R106L/R155S/R180L/S101N/S121T/S35A/S48A/V306I/V36M/Y195H/Y91F); assay: Competitive peptide binding assay, CIR-B5101; details: HMy2.CIR-B5101 cells, reference Cy5-[…], class from inhibition at 5 and 15 μM, flow cytometry MFI; read-out: Binding affinity with HLA-B5101
# Procedure: as §1
# HLA-B1302 = HLA-B1302 (Homo sapiens, UniProt P01889, A65T/A93T/A95T/D138N/D201E/D98Y/E176V/E204Q/E69M/E70A/G107R/K202T/L105A/L119W/N104T/N87E/Q94N/R106L/R155S/R169L/R180L/S101N/S121T/S35A/S48T/V127L/V36M/Y140L/Y91S); assay: Competitive peptide binding assay, CIR-B1302; details: HMy2.CIR-B1302 cells, reference Cy5-MMWYWGPSL, class from inhibition at 5 and 15 μM, flow cytometry MFI; read-out: Binding affinity with HLA-B1302
# Procedure: as §1
# HLA-B1501 = HLA-B1501 (Homo sapiens, UniProt P01889, A329T/A93T/A95T/C349S/D201E/D98Y/E187L/E204Q/E69M/E70A/K202T/N87E/Q94N/R155S/R180W/S121R/S35A/S48A/V306I/V36M/Y140S/Y91S); assay: Competitive peptide binding assay, CIR-B1501; details: HMy2.CIR-B1501 cells, reference Cy5-[…], class from inhibition at 5 and 15 μM, flow cytometry MFI; read-out: Binding affinity with HLA-B1501
# Procedure: as §1
# HLA-B3501 = HLA-B3501 (Homo sapiens, UniProt P01889, A329T/A93T/A95T/C349S/D201E/D98Y/E176V/E187L/E204Q/E69T/I218V/K202T/L119I/Q94N/R155S/R180L/S121R/S35A/S48A/T118I/V127L/V306I/V36M/Y140S/Y91F); assay: Competitive peptide binding assay, CIR-B3501; details: HMy2.CIR-B3501 cells, reference Cy5-[…], class from inhibition at 5 and 15 μM, flow cytometry MFI; read-out: Binding affinity with HLA-B3501
# Procedure: as §1
# HLA-B4801 = HLA-B4801 (Homo sapiens, UniProt P01889, A269T/A93T/A95T/D138N/D98Y/E176V/N87E/Q94N/R180L/T167S/W171L/Y91S); assay: Competitive peptide binding assay, CIR-B4801; details: HMy2.CIR-B4801 cells, reference Cy5-[…], class from inhibition at 5 and 15 μM, flow cytometry MFI; read-out: Binding affinity with HLA-B4801
# Procedure: as §1
SMILES,IC50 (HLA-C0102),IC50 (HLA-C0801),IC50 (HLA-C0304),IC50 (HLA-C0302),IC50 (HLA-C0303),IC50 (HLA-C0701),IC50 (HLA-C0602),IC50 (HLA-C0401),IC50 (HLA-C0702),IC50 (HLA-C1202),IC50 (HLA-B4601),IC50 (HLA-B5801),IC50 (HLA-B1502),IC50 (HLA-B5101),IC50 (HLA-B1302),IC50 (HLA-B1501),IC50 (HLA-B3501),IC50 (HLA-B4801)
CC[C@H](C)[C@H](NC(=O)[C@H](C)NC(=O)[C@H](C)NC(=O)[C@H](CC(N)=O)NC(=O)CNC(=O)[C@H](CC(=O)O)NC(=O)[C@H](CCC(N)=O)NC(=O)[C@H](C)NC(=O)[C@@H](N)Cc1ccccc1)C(=O)O [Epitope M22] (H-FAQDGNAAI-OH; N-terminus and C-terminus assumed),> 15 µM,< 5 µM,5 to 15 µM,< 5 µM,> 15 µM,> 15 µM,> 15 µM,–,–,–,–,–,–,–,–,–,–,–
C[C@H](NC(=O)[C@H](Cc1ccc(O)cc1)NC(=O)[C@H](C)NC(=O)[C@@H](N)Cc1ccccc1)C(=O)N[C@@H](CC(N)=O)C(=O)N[C@@H](CCCNC(=N)N)C(=O)N[C@@H](CC(N)=O)C(=O)N[C@@H](CCCNC(=N)N)C(=O)N[C@@H](Cc1ccccc1)C(=O)O [Epitope M43] (H-FAYANRNRF-OH; N-terminus and C-terminus assumed),> 15 µM,–,–,–,–,< 5 µM,5 to 15 µM,> 15 µM,5 to 15 µM,–,–,–,–,–,–,–,–,–
CC[C@H](C)[C@H](N)C(=O)N[C@@H](C)C(=O)N[C@@H](CCSC)C(=O)N[C@@H](C)C(=O)N[C@@H](CS)C(=O)N[C@@H](CC(C)C)C(=O)N[C@H](C(=O)NCC(=O)N[C@@H](CC(C)C)C(=O)O)C(C)C [Epitope M44] (H-IAMACLVGL-OH; N-terminus and C-terminus assumed),< 5 µM,> 15 µM,> 15 µM,< 5 µM,> 15 µM,> 15 µM,> 15 µM,–,> 15 µM,–,–,–,–,–,–,–,–,–
CSCC[C@H](NC(=O)[C@H](CO)NC(=O)[C@H](CCCNC(=N)N)NC(=O)[C@@H](NC(=O)[C@H](CCCNC(=N)N)NC(=O)[C@H](C)NC(=O)[C@@H](N)Cc1ccccc1)[C@@H](C)O)C(=O)N[C@@H](Cc1c[nH]c2ccccc12)C(=O)N[C@@H](CO)C(=O)N[C@@H](Cc1ccccc1)C(=O)O [Epitope M71] (H-FARTRSMWSF-OH; N-terminus and C-terminus assumed),–,> 15 µM,–,< 5 µM,–,5 to 15 µM,> 15 µM,> 15 µM,5 to 15 µM,–,–,–,–,–,–,–,–,–
CC(C)C[C@H](NC(=O)[C@H](Cc1ccccc1)NC(=O)[C@@H](NC(=O)[C@@H](N)C(C)C)C(C)C)C(=O)N[C@@H](Cc1c[nH]cn1)C(=O)N[C@H](C(=O)N[C@H](C(=O)N[C@@H](Cc1ccc(O)cc1)C(=O)N[C@H](C(=O)O)C(C)C)[C@@H](C)O)C(C)C [Epitope M131] (H-VVFLHVTYV-OH; N-terminus and C-terminus assumed),5 to 15 µM,–,5 to 15 µM,> 15 µM,–,–,–,–,> 15 µM,> 15 µM,–,–,–,–,–,–,–,–
CC(C)C[C@H](NC(=O)[C@H](CC(=O)O)NC(=O)[C@@H](NC(=O)[C@H](CC(=O)O)NC(=O)[C@@H](NC(=O)[C@H](Cc1c[nH]cn1)NC(=O)[C@H](CO)NC(=O)[C@H](CCC(=O)O)NC(=O)[C@H](C)N)C(C)C)[C@@H](C)O)C(=O)O [Epitope Y198] (H-AESHVDTDL-OH; N-terminus and C-terminus assumed),–,–,–,–,–,–,–,–,–,–,> 15 µM,> 15 µM,> 15 µM,> 15 µM,5 to 15 µM,> 15 µM,> 15 µM,> 15 µM
